{"source": "PubChem BioAssay AID1259410", "about": "(Chemical Carcinogenesis Research Information System (CCRIS), 2018)", "origin": "cited, not measured here", "system": "rodent tumor promotion studies, tumor incidence", "assay": "CCRIS tumor promotion studies", "details": "Route [Promoter]: ORAL", "text": "The CCRIS database contains chemical records with carcinogenicity, mutagenicity, tumor promotion, and tumor inhibition test results. It was developed by the National Cancer Institute (NCI). Data are derived from studies cited in primary journals, current awareness tools, NCI reports, and other sources. Test results have been reviewed by experts in carcinogenesis and mutagenesis.\nCCRIS provides historical information from the years 1985 - 2011. It is no longer updated.\nThis is an archive assay for CCRIS tumor promotion studies."}
{"smiles": "CCC1(c2ccccc2)C(=O)N=C(O)NC1=O", "note": "(stereo unspecified)", "values": [{"measurement": "outcome", "setting": "Carcinogen: 2-(ACETYLAMINO)FLUORINE, Doses [Carcinogen]: 0.02% IN DIET FOR 4 WK, Doses [Promoter]: 0.05% IN DIET FOR 32 WK, Route [Carcinogen]: ORAL, Species: RAT, Strain/Sex: F344/MALE", "result": "liver: hepatocellular carcinoma"}, {"measurement": "outcome", "setting": "Carcinogen: DIETHYLNITROSAMINE, 55-18-5, 2-ACETYLAMINOFLUORENE, 6292-55-3, CARBON TETRACHLORIDE, 56-23-5, Carcinogen: DIETHYLNITROSAMINE, 55-18-5, 2-ACETYLAMINOFLUORENE, 6292-55-3, CARBON TETRACHLORIDE, 56-23-5, Doses [Carcinogen]: 200 MG/KG ONCE FOLLOWED 2 WK LATER BY 0.03% 2-ACETYLAMINOFLUORENE IN DIET FOR 2 WK PLUS 2 ML/KG CARBON TETRACHLORIDE IN, Doses [Promoter]: 0.05% IN DIET STARTING 1 WK POST 2-ACETYLAMINOFLUORENE AND CONTINUED FOR 6 MO (STUDY DURATION: 7 MO), Route [Carcinogen]: INTRAPERITONEAL, ORAL, INTRAGASTRIC, Route [Carcinogen]: INTRAPERITONEAL, ORAL, INTRAGASTRIC, Species: RAT, Strain/Sex: WISTAR/MALE", "result": "liver: hepatocellular carcinoma"}, {"measurement": "outcome", "setting": "Carcinogen: DIETHYLNITROSAMINE, 55-18-5, Doses [Carcinogen]: 2.5, 10, 25, 50 UG/G IN SALINE ONCE ON DAY 15 OF AGE, Doses [Promoter]: 0, 500 PPM IN DRINKING WATER FROM 28 DAYS OF AGE TO 12, 24, 40 WK POST-WEANING (STUDY DURATION: 42 WK), Route [Carcinogen]: INTRAPERITONEAL, Species: MOUSE, Strain/Sex: BALB/MALE", "result": "liver: adenoma"}, {"measurement": "outcome", "setting": "Carcinogen: DIETHYLNITROSAMINE, 55-18-5, N-METHYLNITROSOUREA, 684-93-5, DIHYDROXY-DI-N- PROPYLNITROSAMINE, 53604-64-6, Carcinogen: DIETHYLNITROSAMINE, 55-18-5, N-METHYLNITROSOUREA, 684-93-5, DIHYDROXY-DI-N- PROPYLNITROSAMINE, 53604-64-6, Doses [Carcinogen]: 100 MG/KG IN SALINE AT BEGINNING OF STUDY, 20 MG/KG IN CITRATE BUFFERED SOLUTION ON D 2, 5, 8 AND 11, 0.1% IN DRINKING, Doses [Carcinogen]: 100 MG/KG IN SALINE AT BEGINNING OF STUDY, 20 MG/KG IN CITRATE BUFFERED SOLUTION ON D 2, 5, 8 AND 11, 0.1% IN DRINKING, Doses [Promoter]: 0, 500 PPM IN DIET BEGINNING POST SEQUENTIAL CARCINOGEN TREATMENT AND CONTINUING FOR DURATION OF STUDY (STUDY DURATION:, Route [Carcinogen]: IP, IP, ORAL, Route [Carcinogen]: IP, IP, ORAL, Species: RAT, Strain/Sex: F344/MALE", "result": "thyroid: adenoma"}, {"measurement": "outcome", "setting": "Carcinogen: DIETHYLNITROSAMINE, 55-18-5, N-METHYLNITROSOUREA, 684-93-5, DIHYDROXY-DI-N- PROPYLNITROSAMINE, 53609-64-6, Carcinogen: DIETHYLNITROSAMINE, 55-18-5, N-METHYLNITROSOUREA, 684-93-5, DIHYDROXY-DI-N- PROPYLNITROSAMINE, 53609-64-6, Doses [Carcinogen]: 100 MG/KG IN SALINE AT BEGINNING OF STUDY, 20 MG/KG IN CITRATE BUFFERED SOLUTION ON D 2, 5, 8 AND 11, 0.1% IN DRINKING, Doses [Carcinogen]: 100 MG/KG IN SALINE AT BEGINNING OF STUDY, 20 MG/KG IN CITRATE BUFFERED SOLUTION ON D 2, 5, 8 AND 11, 0.1% IN DRINKING, Doses [Promoter]: 0, 500 PPM IN DIET BEGINNING POST SEQUENTIAL CARCINOGEN TREATMENT AND CONTINUING FOR DURATION OF STUDY (STUDY DURATION:, Route [Carcinogen]: IP, IP, ORAL, Route [Carcinogen]: IP, IP, ORAL, Species: RAT, Strain/Sex: F344/MALE", "result": "thyroid: adenoma"}, {"measurement": "outcome", "setting": "Carcinogen: ETHYLNITROSOUREA, 759-73-9, Doses [Carcinogen]: 5 MG/KG ONCE AT 15 D OF AGE, Doses [Promoter]: 0, 500 PPM IN DRINKING WATER BEGINNING AT 5 WK OF AGE AND CONTINUING TO 51 WK OF AGE (STUDY DURATION: 52 WK), Route [Carcinogen]: INTRAPERITONEAL, Species: MOUSE, Strain/Sex: CD-1/FEMALE", "result": "liver: adenoma"}, {"measurement": "outcome", "setting": "Carcinogen: ETHYLNITROSOUREA, 759-73-9, Doses [Carcinogen]: 5 MG/KG ONCE AT 15 D OF AGE, Doses [Promoter]: 0, 500 PPM IN DRINKING WATER BEGINNING AT 5 WK OF AGE AND CONTINUING TO 51 WK OF AGE (STUDY DURATION: 52 WK), Route [Carcinogen]: INTRAPERITONEAL, Species: MOUSE, Strain/Sex: CD-1/MALE", "result": "liver: carcinoma"}, {"measurement": "outcome", "setting": "Carcinogen: ETHYLNITROSOUREA, 759-73-9, Doses [Carcinogen]: 20 MG/KG ONCE AT 15 D OF AGE, Doses [Promoter]: 0, 500 PPM IN DRINKING WATER BEGINNING AT 5 WK OF AGE AND CONTINUING TO 51 WK OF AGE (STUDY DURATION: 52 WK), Route [Carcinogen]: INTRAPERITONEAL, Species: MOUSE, Strain/Sex: CD-1/FEMALE", "result": "liver: adenoma, carcinoma"}, {"measurement": "outcome", "setting": "Carcinogen: ETHYLNITROSOUREA, 759-73-9, Doses [Carcinogen]: 20 MG/KG ONCE AT 15 D OF AGE, Doses [Promoter]: 0, 500 PPM IN DRINKING WATER BEGINNING AT 5 WK OF AGE AND CONTINUING TO 51 WK OF AGE (STUDY DURATION: 52 WK), Route [Carcinogen]: INTRAPERITONEAL, Species: MOUSE, Strain/Sex: CD-1/MALE", "result": "liver: carcinoma"}, {"measurement": "outcome", "setting": "Carcinogen: N-BIS(2-HYDROXYPROPYL)NITROSAMINE, 53609-64-6, Doses [Carcinogen]: 280 MG/100 G/BW ONCE, Doses [Promoter]: 0, 0.05% IN DRINKING WATER FOR 25 WK (STUDY DURATION: 26 WK), Route [Carcinogen]: SUBCUTANEOUS, Species: RAT, Strain/Sex: F344/MALE", "result": "thyroid: neoplasm"}, {"measurement": "outcome", "setting": "Carcinogen: N-METHYL-N-NITROSOUREA, 684-93-5, Doses [Carcinogen]: 30 MG/KG BW ONCE, Doses [Promoter]: 0, 0.5% IN DRINKING WATER FOR DURATION OF STUDY BEGINNING POST CARCINOGEN DOSE(STUDY DURATION: 14 MO), Route [Carcinogen]: INTRAVENOUS, Species: RAT, Strain/Sex: LOBUND-WISTAR/MALE", "result": "lung: carcinoma, prostate/seminal vesicles: tumor"}]}
